This test concerns the target T1, full-length MALT1 protein (Strep-MALT1(1-824)-His) (Homo sapiens, UniProt Q9UDY8).
T1 sequence (Q9UDY8 1-824): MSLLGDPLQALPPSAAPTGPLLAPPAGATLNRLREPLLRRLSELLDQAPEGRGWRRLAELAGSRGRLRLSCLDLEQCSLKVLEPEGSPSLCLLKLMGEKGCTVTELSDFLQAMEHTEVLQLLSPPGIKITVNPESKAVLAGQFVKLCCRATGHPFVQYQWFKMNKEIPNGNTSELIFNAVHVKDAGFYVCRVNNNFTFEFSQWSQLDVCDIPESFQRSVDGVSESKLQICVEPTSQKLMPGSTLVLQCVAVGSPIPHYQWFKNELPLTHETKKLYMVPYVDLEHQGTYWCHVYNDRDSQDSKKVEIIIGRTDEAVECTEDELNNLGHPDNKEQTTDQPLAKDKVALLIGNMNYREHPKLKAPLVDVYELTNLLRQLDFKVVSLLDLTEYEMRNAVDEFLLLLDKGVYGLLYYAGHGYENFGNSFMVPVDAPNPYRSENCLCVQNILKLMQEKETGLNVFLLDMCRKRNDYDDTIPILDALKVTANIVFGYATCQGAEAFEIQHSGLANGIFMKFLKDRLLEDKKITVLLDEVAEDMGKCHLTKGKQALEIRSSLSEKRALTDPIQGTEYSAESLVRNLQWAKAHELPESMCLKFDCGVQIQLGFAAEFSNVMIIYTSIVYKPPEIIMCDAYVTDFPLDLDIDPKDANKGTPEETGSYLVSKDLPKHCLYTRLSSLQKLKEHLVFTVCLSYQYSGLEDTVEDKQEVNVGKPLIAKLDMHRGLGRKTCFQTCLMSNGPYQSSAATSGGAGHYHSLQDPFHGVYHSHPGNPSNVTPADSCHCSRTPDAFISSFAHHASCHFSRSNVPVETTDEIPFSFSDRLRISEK
Put plainly: biochemical.

Each structure is given as a SMILES string.
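Further: fluorogenic LRSR-AMC substrate cleavage by MALT1, 50 min compound preincubation then 4 h reaction at RT, 11-point dilution from 30 µM, scaled between enzyme-free and untreated enzyme controls.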

Regarding `O=C(Nc1cnc(-n2nccn2)c(Cl)c1)c1cnn(-c2ccc(F)c(N3CC(O)C3)n2)c1C(F)(F)F` [Cpd 151, N-(5-chloro-6-(2H-1,2,3-triazol-2-yl)pyridin-3-yl)-1-(5-fluoro-6-(3-hydroxyazetidin-1-yl)pyridin-2-yl)-5-(trifluoromethyl)-1H-pyrazole-4-carboxamide], the IC50 (in general, the midpoint of a concentration-inhibition curve) turned out to be 2400 nM.
With `N#Cc1cc(NC(=O)c2cnn(-c3ccc(F)c(N4CC(O)C4)n3)c2C(F)(F)F)cnc1-n1nccn1` [Cpd 152, N-(5-cyano-6-(2H-1,2,3-triazol-2-yl)pyridin-3-yl)-1-(5-fluoro-6-(3-hydroxyazetidin-1-yl)pyridin-2-yl)-5-(trifluoromethyl)-1H-pyrazole-4-carboxamide] the figure was 832 nM.
With `Cc1c[n+]([O-])ccc1-n1ncc(C(=O)Nc2cnc(-n3nccn3)c(Cl)c2)c1C(F)(F)F` [Cpd 153, 4-(4-((5-chloro-6-(2H-1,2,3-triazol-2-yl)pyridin-3-yl)carbamoyl)-5-(trifluoromethyl)-1H-pyrazol-1-yl)-3-methylpyridine 1-oxide] the figure was 4900 nM; with `Cc1cnc(Cl)cc1-n1ncc(C(=O)Nc2cnc(-n3nccn3)c(Cl)c2)c1C(F)(F)F` [Cpd 154, 1-(2-chloro-5-methyl-4-pyridyl)-N-[5-chloro-6-(triazol-2-yl)-3-pyridyl]-5-(trifluoromethyl)pyrazole-4-carboxamide], 955 nM; with `Cc1c(-n2ncc(C(=O)Nc3cnc(-n4nccn4)c(Cl)c3)c2C(F)(F)F)ccnc1Cl` [Cpd 155, 1-(2-chloro-3-methylpyridin-4-yl)-N-(5-chloro-6-(2H-1,2,3-triazol-2-yl)pyridin-3-yl)-5-(trifluoromethyl)-1H-pyrazole-4-carboxamide], 257 nM.
With `Cc1cnc(N2CC(O)C2)cc1-n1ncc(C(=O)Nc2cnc(-n3nccn3)c(Cl)c2)c1C(F)(F)F` [Cpd 156, N-(5-chloro-6-(2H-1,2,3-triazol-2-yl)pyridin-3-yl)-1-(2-(3-hydroxyazetidin-1-yl)-5-methylpyridin-4-yl)-5-(trifluoromethyl)-1H-pyrazole-4-carboxamide] the figure was 1290 nM; with `Cc1c(-n2ncc(C(=O)Nc3cnc(-n4nccn4)c(Cl)c3)c2C(F)(F)F)ccnc1N1CC(O)C1` [Cpd 157, N-(5-chloro-6-(2H-1,2,3-triazol-2-yl)pyridin-3-yl)-1-(2-(3-hydroxyazetidin-1-yl)-3-methylpyridin-4-yl)-5-(trifluoromethyl)-1H-pyrazole-4-carboxamide], 8130 nM.
The compound `Cc1ccnnc1-n1ncc(C(=O)Nc2cnc(-n3nccn3)c(Cl)c2)c1C(F)(F)F` [Cpd 159, N-(5-chloro-6-(2H-1,2,3-triazol-2-yl)pyridin-3-yl)-1-(4-methylpyridazin-3-yl)-5-(trifluoromethyl)-1H-pyrazole-4-carboxamide] registered an IC50 of 3160 nM.
Consider `Cc1nc(-n2ncc(C(=O)Nc3cnc(-n4nccn4)c(Cl)c3)c2C(F)(F)F)ccc1F` [Cpd 161, N-(5-chloro-6-(2H-1,2,3-triazol-2-yl)pyridin-3-yl)-1-(5-fluoro-6-methylpyridin-2-yl)-5-(trifluoromethyl)-1H-pyrazole-4-carboxamide], for which the IC50 came out at 741 nM.
On to `O=C(Nc1cnc(-n2nccn2)c(Cl)c1)c1cnn(-c2nc(Cl)ccc2Cl)c1C(F)(F)F` [Cpd 163, N-(5-chloro-6-(2H-1,2,3-triazol-2-yl)pyridin-3-yl)-1-(3,6-dichloropyridin-2-yl)-5-(trifluoromethyl)-1H-pyrazole-4-carboxamide], for which the IC50 was 794 nM.
With `N#Cc1cc(NC(=O)c2cnn(-c3nc(Cl)ccc3C(F)(F)F)c2C(F)(F)F)cnc1-n1nccn1` [Cpd 164, 1-(6-chloro-3-(trifluoromethyl)pyridin-2-yl)-N-(5-cyano-6-(2H-1,2,3-triazol-2-yl)pyridin-3-yl)-5-(trifluoromethyl)-1H-pyrazole-4-carboxamide] the figure was 1410 nM.
The figure for `O=C(Nc1cnc(-n2nccn2)c(Cl)c1)c1cnn(-c2nc(Cl)ccc2C(F)(F)F)c1C(F)(F)F` [Cpd 165, 1-(6-chloro-3-(trifluoromethyl)pyridin-2-yl)-N-(5-chloro-6-(2H-1,2,3-triazol-2-yl)pyridin-3-yl)-5-(trifluoromethyl)-1H-pyrazole-4-carboxamide] is 2290 nM; for `Cc1nc(-n2nccn2)c(Cl)cc1NC(=O)c1cnn(-c2ccc(C#N)c(N)n2)c1C(F)(F)F` [Cpd 178, 1-(6-amino-5-cyanopyridin-2-yl)-N-(5-chloro-2-methyl-6-(2H-1,2,3-triazol-2-yl)pyridin-3-yl)-5-(trifluoromethyl)-1H-pyrazole-4-carboxamide] it is 200 nM; for `Cc1ccc(-n2ncc(C(=O)Nc3cnc(-n4nccn4)c(Cl)c3)c2C(F)(F)F)nc1N` [Cpd 184, 1-(6-amino-5-methylpyridin-2-yl)-N-(5-chloro-6-(2H-1,2,3-triazol-2-yl)pyridin-3-yl)-5-(trifluoromethyl)-1H-pyrazole-4-carboxamide] it is 331 nM.
Compound `Cc1cc(F)c(N)nc1-n1ncc(C(=O)Nc2cc(C#N)c(-n3nccn3)nc2C)c1C(F)(F)F` [Cpd 186, 1-(6-amino-5-fluoro-3-methylpyridin-2-yl)-N-(5-cyano-2-methyl-6-(2H-1,2,3-triazol-2-yl)pyridin-3-yl)-5-(trifluoromethyl)-1H-pyrazole-4-carboxamide] returned a half-maximal inhibitory concentration (IC50) of 339 nM.
The compound `N#Cc1cc(NC(=O)c2cnn(-c3nc(N)ccc3C(F)(F)F)c2C(F)(F)F)cnc1-n1nccn1` [Cpd 187, 1-(6-amino-3-(trifluoromethyl)pyridin-2-yl)-N-(5-cyano-6-(2H-1,2,3-triazol-2-yl)pyridin-3-yl)-5-(trifluoromethyl)-1H-pyrazole-4-carboxamide] yielded an IC50 of 380 nM.
For `Cc1cc(F)c(N)nc1-n1ncc(C(=O)Nc2cc(Cl)c(-n3nccn3)nc2C)c1C(F)(F)F` [Cpd 188, 1-(6-amino-5-fluoro-3-methylpyridin-2-yl)-N-(5-chloro-2-methyl-6-(2H-1,2,3-triazol-2-yl)pyridin-3-yl)-5-(trifluoromethyl)-1H-pyrazole-4-carboxamide], half-maximal inhibition (IC50) was put at 380 nM. This lies in the sub-micromolar range.
The compound `CNc1cccc(-n2ncc(C(=O)Nc3cnc(-n4nccn4)c(C#N)c3)c2C(F)(F)F)n1` [Cpd 189, N-(5-cyano-6-(2H-1,2,3-triazol-2-yl)pyridin-3-yl)-1-(6-(methylamino)pyridin-2-yl)-5-(trifluoromethyl)-1H-pyrazole-4-carboxamide] had an IC50 of 437 nM.
For `Cc1cc(N)ncc1-n1ncc(C(=O)Nc2cnc(-n3nccn3)c(C#N)c2)c1C(F)(F)F` [Cpd 190, 1-(6-amino-4-methylpyridin-3-yl)-N-(5-cyano-6-(2H-1,2,3-triazol-2-yl)pyridin-3-yl)-5-(trifluoromethyl)-1H-pyrazole-4-carboxamide], the IC50 stood at 447 nM.
`Cc1cc(N)ncc1-n1ncc(C(=O)Nc2cnc(-n3nccn3)c(Cl)c2)c1C(F)(F)F` [Cpd 191, 1-(6-amino-4-methylpyridin-3-yl)-N-(5-chloro-6-(2H-1,2,3-triazol-2-yl)pyridin-3-yl)-5-(trifluoromethyl)-1H-pyrazole-4-carboxamide] registered an IC50 of 724 nM. Against the preceding compound, the IC50 is about 1.6-fold higher.
As for `Nc1ccc(C(F)(F)F)c(-n2ncc(C(=O)Nc3cnc(-n4nccn4)c(Cl)c3)c2C(F)(F)F)n1` [Cpd 192, 1-(6-amino-3-(trifluoromethyl)pyridin-2-yl)-N-(5-chloro-6-(2H-1,2,3-triazol-2-yl)pyridin-3-yl)-5-(trifluoromethyl)-1H-pyrazole-4-carboxamide], the IC50 came to 1120 nM.
As for `N#Cc1cc(NC(=O)c2cnn(-c3ccc(N)nc3)c2C(F)(F)F)cnc1-n1nccn1` [Cpd 194, 1-(6-aminopyridin-3-yl)-N-(5-cyano-6-(2H-1,2,3-triazol-2-yl)pyridin-3-yl)-5-(trifluoromethyl)-1H-pyrazole-4-carboxamide], 1170 nM corresponded to half-maximal inhibition (IC50).
As for `Cc1nc(N)ccc1-n1ncc(C(=O)Nc2cnc(-n3nccn3)c(C#N)c2)c1C(F)(F)F` [Cpd 196, 1-(6-amino-2-methylpyridin-3-yl)-N-(5-cyano-6-(2H-1,2,3-triazol-2-yl)pyridin-3-yl)-5-(trifluoromethyl)-1H-pyrazole-4-carboxamide], the IC50 was 1320 nM.
With `Cc1ccc(-n2ncc(C(=O)Nc3cc(C#N)c(-n4nccn4)nc3C)c2C(F)(F)F)nc1N` [Cpd 197, 1-(6-amino-5-methylpyridin-2-yl)-N-(5-cyano-2-methyl-6-(2H-1,2,3-triazol-2-yl)pyridin-3-yl)-5-(trifluoromethyl)-1H-pyrazole-4-carboxamide] the figure was 2510 nM; with `Cc1nc(-n2nccn2)c(Cl)cc1NC(=O)c1cnn(-c2ccc(C(N)=O)c(N)n2)c1C(F)(F)F` [Cpd 198, 2-amino-6-(4-((5-chloro-2-methyl-6-(2H-1,2,3-triazol-2-yl)pyridin-3-yl)carbamoyl)-5-(trifluoromethyl)-1H-pyrazol-1-yl)nicotinamide], 3720 nM.

These data come from patent US11040031B2, “Pyrazole derivatives as MALT1 inhibitors” (Janssen Pharmaceutica NV, priority 2018, dated 2021).
